Experimental data published in US9381176B2, “E-prostanoid receptor, Ptger3, as a novel anti-diabetic therapeutic target” (Wisconsin Alumni Research Foundation, priority 2012, dated 2016).
“Also recorded” adds a separate entry of the source. Blank lines part the entries; values can stand above or below the compound they belong to. No end group written: not given here.

Experiments:
[1] = diabetic patients treated with sitagliptin; cited from earlier work
[2] = tested on: islets isolated from 10-week-old BTBR lean and Ob mice; assay: Mouse islet glucose-stimulated insulin secretion (GSIS) assay; type: cell-based; settings: for effect on GSIS from islets obtained from diabetic BTBR mice: diabetic (ob/ob) BTBR islets; for effect on GSIS from islets obtained from diabetic BTBR mice / effect on GSIS from islets obtained from non-diabetic mice: 16.7 mM glucose, PGE1 5 μM or L-798,106 20 μM, 1 hour static incubation; for effect on GSIS from islets obtained from non-diabetic mice: non-diabetic (lean) BTBR islets
Protocol: Mouse Islet Isolation & Culture. Intact pancreatic islets were isolated from 10-12-week-old BTBR lean and ob/ob mice using a known collagenase digestion protocol (Rabaglia et al., Am. J. Physiology Endo. Metab. 289:E218-224 (2005)). Instead of CO2 asphyxiation and decapitation, mice were Avertin-anesthetized and exsanguinated immediately prior to cannulation of the bile duct and inflation of the pancreas with a collagenase solution. Islets were cultured overnight in 5 ml RPMI 1640 containing 11.1 mM glucose and 10% heat-inactivated FBS with 1X penicillin/streptomycin prior to in vitro assay for insulin secretion and PGE2 production.
Mouse Islet Insulin Secretion and PGE2 Production Assays. Insulin secretion assays were performed in mesh-bottomed glass tubes essentially as in Rabaglia et al. (2005). Modifications include: 4 islets/replicate were picked into Krebs Ringer Bicarbonate Buffer (KRBB) containing 1.7 mM glucose and 0.25% BSA. Replicates were pre-incubated for 1 hour in fresh 1.7 mM KRBB before being transferred to stimulation medium containing the desired concentrations of glucose and drug treatment (e.g., PGE1, PGE2, and sulprostone [Sigma Aldrich] or L-798,106 [Tocris]). Insulin secretion as a percentage of total insulin content was determined using an in-house insulin ELISA, as described above.
As a first step in testing their hypothesis that the EP3 signaling pathway contributes to the pathophysiology of T2D, the Inventors subjected islets isolated from 10-week-old BTBR lean and Ob mice to treatment with a selective agonist (PGE1) or specific antagonist (L-798,106) of the EP3 receptor to monitor the impact on GSIS. Briefly, mouse islets were incubated in medium containing 1.7 mM glucose (non-stimulatory towards insulin secretion) or 16.7 mM glucose (stimulatory towards insulin secretion), with and without the addition of 5 μM PGE1 or 20 μM L-798,106.
GLP-1-based therapies are used in T2D therapy. To test the possibility that EP3 antagonism can augment the effect of GLP-1 agonism, islets from diabetic BTBR mice were treated with stimulatory glucose, with and without the addition of 50 nM GLP-1 and/or 10 μM […], and the level of insulin secretion monitored (FIG. 9).

Ins-1 832/3 cells = assay: INS1 cell insulin secretion assay; type: cell-based, rat; settings: for minimum dose yielding maximum effect on GSIS inhibition: 2 hour stimulation
Protocol: INS1 Cell Culture and Insulin Secretion Assays. The glucose responsive rat beta cell line, INS1 (832/3) was cultured in RPMI 1640 (11.1 mM glucose) supplemented with NaHCO3, HEPES, heat-inactivated FBS, L-glutamine, sodium pyruvate and β-mercaptoethanol. 3 days prior to assay, 1×10^5 cells were plated per well in 96-well cell culture plates. Twenty-four hours prior to the assay, the medium was aspirated and fresh growth medium added. On the day of the assay, confluent Ins-1 832/3 cells were washed once with sterile PBS and pre-incubated for 2 hours in KRBB supplemented with 25 mM HEPES and containing 1.7 mM glucose and 0.2% BSA. Cells were then stimulated for 2 hours with KRBB containing 16.7 mM glucose and the desired concentrations of agonists/antagonists. Secretion buffer was collected and the secreted and cellular insulin content determined by acid/ethanol extraction, as described above.
Insulin secretion assays in Ins-1 832/3 cells were performed wherein the dose of PGE2 (a physiological agonist of EP3) or sulprostone (an EP3-selective agonist) were varied over a wide concentration range. […] The minimum dose of sulprostone yielding maximum effect on GSIS inhibition was approximately 10 nM and the minimum dose of PGE2 was approximately 50 nM.

[3] = tested on: human islets from non-diabetic or T2D cadaveric donors; assay: Human islet insulin secretion assay; type: cell-based
Protocol: Human Islet Culture and Insulin Secretion Assays. Human islets were obtained through the Integrated Islet Distribution Program. On the day of arrival, islets were cultured overnight in RPMI containing 8 mM glucose, 10% heat-inactivated FBS, and 1X penicillin/streptomycin to confirm viability and sterility. Islets were cultured in 6 cm Petri dishes with approximately 1000 islet equivalents plated per dish. Islets were hand-picked and incubated an additional day in medium containing the desired concentration of glucose and/or xylitol before assaying for insulin secretion. Insulin secretion assays on human islets were performed identically to those described for mouse islets, except that 10 islets were used per replicate instead of 4.
Non-diabetic and T2D human islets were cultured for 48 hours in 8 mM glucose. A subset of the non-diabetic donor islets were also incubated with 0.5 mM xylitol, a glucose analog that is non-metabolizable beyond glucose-6 phosphate, during the final 24 hour culture period. […] Xylitol activates the FoxO1 transcription factor via glucose-6 phosphate formation, providing an alternative mechanism for up-regulating gene expression. Following 48 hours in culture, cellular insulin secretion was stimulated for 45 minutes with 16.7 mM glucose in the absence and presence of 10 μM L-798,106. Secreted insulin was normalized to total insulin content in order to determine the fractional release of insulin. Data from each human islet set was normalized to its own response in 16.7 mM glucose alone to isolate the effect of L-798,106 on GSIS (FIG. 6).

Compound: N[C@@H](CC(=O)N1CCn2c(nnc2C(F)(F)F)C1)Cc1cc(F)c(F)cc1F [sitagliptin]
diabetic patients who fail to achieve HbAlc target of <7% [1]: 35-60%

Compound: glucagon-like peptide 1 (HAEGTFTSDVSSYLEGQAAKEFIAWLVKGR; ends and bridges not checked; UniProt P01275 98-127, looked up) [GLP-1, hormone glucagon-like peptide 1]
effect of GLP-1 alone on insulin secretion from diabetic BTBR islets ([2]; diabetic BTBR islets, 11.1 mM glucose, GLP-1 50 nM): significant impact on insulin secretion

IC50 (Ins-1 832/3 cells; 16.7 mM glucose, 2 hour static incubation, read-out: approximate IC50 for suppression of insulin secretion): ~10 nM
Compound: CCCCC[C@H](O)/C=C/[C@H]1[C@H](O)CC(=O)[C@@H]1C/C=C\CCCC(=O)O [PGE2]
minimum dose yielding maximum effect on GSIS inhibition (Ins-1 832/3 cells; 16.7 mM glucose): approximately 50 nM
maximal reduction in insulin secretion (Ins-1 832/3 cells; 16.7 mM glucose, increasing concentrations, 2 hour static incubation): ~80%
inhibition of GSIS (dose dependence) (Ins-1 832/3 cells; 16.7 mM glucose, wide concentration range): dose-dependently suppresses insulin secretion; also recorded: dose-dependently inhibited GSIS

Compound: CS(=O)(=O)NC(=O)CCC/C=C\C[C@H]1C(=O)C[C@@H](O)[C@@H]1/C=C/[C@@H](O)COc1ccccc1 [sulprostone]
minimum dose yielding maximum effect on GSIS inhibition (Ins-1 832/3 cells; 16.7 mM glucose): approximately 10 nM

Compound: CCCCC[C@H](O)/C=C/[C@H]1[C@H](O)CC(=O)[C@@H]1CCCCCCC(=O)O [PGE1]
effect on GSIS from islets obtained from diabetic BTBR mice [2]: significantly altered insulin secretion; also recorded: reduced GSIS
effect on GSIS from islets obtained from non-diabetic mice [2]: had no effect

EC50 (Ins-1 832/3 cells; Rattus norvegicus, INS1, in the presence of 50 nM PGE2 (maximal inhibitory concentration), 16.7 mM glucose, 2 hour static incubation, read-out: approximate EC50 for restoring insulin secretion): ~100 nM
Compound: COc1ccc(Br)cc1S(=O)(=O)NC(=O)/C=C/c1ccccc1Cc1ccc2ccccc2c1 [L-798,106, (2E)-N-[(5-bromo-2-methoxyphenyl)sulfonyl]-3-[2-(2-naphthalenylmethyl)phenyl]-2-propenamide]
effect on GSIS from islets obtained from diabetic BTBR mice [2]: significantly altered insulin secretion; also recorded: enhanced GSIS
effect on GLP-1 dependent insulin secretion from diabetic BTBR islets ([2]; diabetic BTBR-ob/ob islets, 11.1 mM glucose, GLP-1 50 nM plus L-798,106 10 μM): augments GLP-1 dependent insulin secretion
effect on GSIS from islets obtained from non-diabetic mice [2]: had no effect on GSIS
effect on insulin secretion from diabetic (T2D) human islets ([3]; T2D donor islets, 16.7 mM glucose, L-798,106 20 μM / 10 μM, 45 minute static incubation): can enhance insulin secretion; also recorded: differed significantly from responses of non-diabetic islets
effect on insulin secretion from non-diabetic human islets ([3]; non-diabetic donors 5-7, cultured in 8 mM glucose, 16.7 mM glucose stimulation, 45 minute static incubation): non-responsive
effect on insulin secretion from xylitol-incubated non-diabetic human islets ([3]; non-diabetic donors 5-7 incubated overnight in 8 mM glucose with 0.5 mM xylitol, 16.7 mM glucose stimulation, 45 minutes): effective to promote glucose dependent insulin secretion; also recorded: differed significantly from responses of non-diabetic islets
reversal of sulprostone-dependent suppression of GSIS (Ins-1 832/3 cells; in the presence of 10 nM sulprostone, stimulatory glucose, dose response of L-798,106): reversed in a dose-dependent manner
reversal of PGE2-dependent suppression of insulin secretion (Ins-1 832/3 cells; in the presence of 50 nM PGE2, increasing concentrations of L-798,106, 16.7 mM glucose): restored maximal insulin secretion; also recorded: reversed in a dose-dependent manner
